{"source": "paper PMC12224939", "about": "“Trypstatin as a Novel TMPRSS2 Inhibitor with Broad‐Spectrum Efficacy against Corona and Influenza Viruses” (Advanced Science, 2025)", "key": {"[1]": {"target": "T1, cathepsin B from human placenta (Homo sapiens, UniProt P07858)", "T1 construct": "cathepsin B from human placenta (Sigma Aldrich #C0150); purchased Sigma Aldrich C0150; host or cells: human placenta (tissue-derived)", "assay": "Cathepsin B activity assay", "type": "biochemical", "details": "enzyme from human placenta", "procedure": "(§1) Cathepsin enzyme activity assays were performed as described before.^[ [42] ^] In brief, serially diluted compounds were mixed with recombinant cathepsin L (R&D #952‐Cy) in assay buffer (50 mM MES, 5 mM DTT, 1 mM EDTA, 0.005% Brij35, pH 6) or with cathepsin B from human placenta (Sigma Aldrich #C0150) in assay buffer (105.6 mM KH2PO4, 14.4 mM Na2HPO4, 1.2 mM EDTA, 0.07% Brij35, 2.4 mM L‐cysteine, pH 6). The protease‐inhibitor mixtures were incubated for 10 min at RT before the addition of the respective fluorogenic reporter substrate Z‐Leu‐Arg‐AMC (for cathepsin L; Bachem #4034611) or Z‐Arg‐Arg‐AMC (for cathepsin B; Bachem #4004789). The final concentrations were as follows: Cathepsin L 0.01 µg mL^−1, cathepsin B 1 µg mL^−1, Z‐Leu‐Arg‐AMC 40 µM or Z‐Arg‐Arg‐AMC 30 µM. Fluorescence intensity was recorded at an excitation wavelength of 380 nm and emission wavelength of 460 nm after 25 min at 37 °C (cathepsin L) or after 60 min at 40 °C (cathepsin B) in a Synergy H1 microplate reader (BioTek) with Gen 5 3.04 software."}, "SARS-CoV-2 Delta": {"system": "SARS-CoV-2 Delta", "details": "hamster, in vivo"}, "[2]": {"system": "lentiviral pseudoparticles harboring VSV-G glycoprotein", "type": "cell-based"}, "cathepsin L": {"target": "T2, cathepsin L (Homo sapiens, UniProt P07711)", "T2 construct": "purchased R&D 952-Cy", "T2 sequence (P07711 114-333)": "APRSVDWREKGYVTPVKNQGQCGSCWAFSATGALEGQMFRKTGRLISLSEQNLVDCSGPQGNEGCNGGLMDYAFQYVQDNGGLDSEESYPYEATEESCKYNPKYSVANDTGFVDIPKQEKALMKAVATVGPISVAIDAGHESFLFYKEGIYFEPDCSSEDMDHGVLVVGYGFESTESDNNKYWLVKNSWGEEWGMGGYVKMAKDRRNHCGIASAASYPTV", "assay": "Cathepsin L activity assay", "type": "biochemical", "details": "recombinant enzyme", "procedure": "as §1"}, "recombinant ACE2": {"target": "T3, recombinant ACE2 (Homo sapiens, UniProt Q9BYF1)", "T3 construct": "purchased R&D 933-ZN", "T3 sequence (Q9BYF1 18-805)": "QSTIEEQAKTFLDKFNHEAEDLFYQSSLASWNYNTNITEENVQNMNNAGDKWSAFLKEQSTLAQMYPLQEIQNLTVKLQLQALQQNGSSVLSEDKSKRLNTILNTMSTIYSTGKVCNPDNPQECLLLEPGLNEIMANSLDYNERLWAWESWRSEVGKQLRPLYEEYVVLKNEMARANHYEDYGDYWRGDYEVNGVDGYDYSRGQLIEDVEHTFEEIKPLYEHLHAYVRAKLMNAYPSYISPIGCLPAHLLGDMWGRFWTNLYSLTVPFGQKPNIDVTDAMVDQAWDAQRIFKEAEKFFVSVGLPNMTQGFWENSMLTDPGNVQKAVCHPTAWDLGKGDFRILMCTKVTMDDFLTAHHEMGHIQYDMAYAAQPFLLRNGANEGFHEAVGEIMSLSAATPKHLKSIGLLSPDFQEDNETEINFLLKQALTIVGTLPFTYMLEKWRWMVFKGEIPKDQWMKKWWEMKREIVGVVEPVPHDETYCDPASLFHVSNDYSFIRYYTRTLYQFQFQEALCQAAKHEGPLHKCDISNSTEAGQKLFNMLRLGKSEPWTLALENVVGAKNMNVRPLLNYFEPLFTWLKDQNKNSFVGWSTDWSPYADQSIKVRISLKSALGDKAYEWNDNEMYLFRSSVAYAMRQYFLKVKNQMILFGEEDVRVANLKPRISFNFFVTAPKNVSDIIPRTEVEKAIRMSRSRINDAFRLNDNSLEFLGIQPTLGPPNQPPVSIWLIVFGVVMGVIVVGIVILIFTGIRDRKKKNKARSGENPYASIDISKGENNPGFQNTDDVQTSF", "assay": "Recombinant ACE2 assay", "type": "biochemical", "procedure": "To determine the activity of Trypstatin against ACE2, 25 µL of 0,4 µg mL^−1 recombinant ACE2 (R&D #933‐ZN) in assay buffer (75 mM Tris, 1 M NaCl, pH 7.5) was mixed with 25 µL of inhibitor for 15 min at 37 °C before addition of 50 µL of 40 µM of MCA‐YVADAPK(Dnp)‐OH substrate (R&D #ES007) and incubation for 5 min at 37 °C. Fluorescence intensity was measured after 5 min at an excitation wavelength of 320 nm and emission wavelength of 405 nm in a SynergyTM H1 microplate reader (BioTek) with Gen5 3.04 software."}, "Caco-2 cells": {"system": "Caco-2 cells", "assay": "Cytotoxicity assay (CellTiter-Glo)", "type": "cell-based, human", "details": "48 h, ATP levels, tested concentrations", "procedure": "To assess the cytotoxicity of the inhibitors used, 10 000 Caco2 cells were seeded in a 96‐well flat bottom plate. The next day, the medium was replaced and cells were treated with serial dilutions of compounds or PBS as a control. After 48 h, cell viability was assessed by measuring ATP levels in cell lysates with a commercially available kit (CellTiter‐Glo, Promega) in an Orion II microplate reader with Simplicity 4.2 software."}, "[3]": {"system": "IL-1ß, IL-6, CCL5, CXCL10, IRF1 expression in HAECs", "type": "cell-based, human"}, "SARS-CoV-2 BA.5": {"system": "SARS-CoV-2 BA.5", "type": "cell-based"}, "[4]": {"target": "T4, TMPRSS2 Syrian gold hamster (Mesocricetus auratus, UniProt A0A1U8C7C8)", "T4 construct": "encoding the respective transmembrane serine protease per well; host or cells: HEK293T", "T4 sequence (A0A1U8C7C8 1-492)": "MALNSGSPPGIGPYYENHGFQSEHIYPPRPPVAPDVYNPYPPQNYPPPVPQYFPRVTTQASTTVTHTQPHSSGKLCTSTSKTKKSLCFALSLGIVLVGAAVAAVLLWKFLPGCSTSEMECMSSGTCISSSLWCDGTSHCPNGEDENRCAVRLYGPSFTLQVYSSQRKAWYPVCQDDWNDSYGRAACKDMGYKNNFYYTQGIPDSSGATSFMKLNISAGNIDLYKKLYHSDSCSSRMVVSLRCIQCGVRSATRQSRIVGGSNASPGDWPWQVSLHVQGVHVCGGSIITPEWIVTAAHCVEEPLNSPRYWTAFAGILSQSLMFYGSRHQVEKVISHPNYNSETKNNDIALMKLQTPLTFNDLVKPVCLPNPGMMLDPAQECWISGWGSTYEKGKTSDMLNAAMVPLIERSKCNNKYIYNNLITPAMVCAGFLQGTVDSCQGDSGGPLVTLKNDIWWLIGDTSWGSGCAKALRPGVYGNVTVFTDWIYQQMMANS", "assay": "Cellular hamster TMPRSS2 activity assay in transfected HEK293T cells", "type": "cell-based", "details": "compared with human TMPRSS2", "procedure": "Twenty thousand HEK293T cells were seeded in a 96‐well flat bottom plate. The next day, cells were transfected with 100 ng of an expression plasmid (Backbone: Twist Bioscience, EF1alpha mammalian expression vector) encoding the respective transmembrane serine protease per well using LT1 transfection reagent (TMPRSS2 human NCBI RefSeq: NP_005647.3; TMPRSS2 Syrian gold hamster NCBI RefSeq: XP_012971683.1; TMPRSS11D NCBI RefSeq: NP_004253.1; TMPRSS13 NCBI RefSeq: NP_001070731.1). In short, plasmid DNA was mixed in a 1:3 ratio with LT1 in a serum‐free medium and incubated for 20 min before the mixture was applied dropwise onto the cells. Sixteen hours post‐transfection, the medium was replaced by a serum‐free medium, and cells were treated with serial dilution of compounds in PBS. After 15 min of incubation at 37 °C, 100 µM of respective protease‐specific substrate (TMPRSS2: Boc‐QAR‐AMC, Bachem # 4017019; TMPRSS11D: Boc‐FSR‐AMC, Bachem # 4012340; TMPRSS13: Pyr‐RTKR‐AMC, Bachem #4018149) was added and incubated for 2 h at 37 °C. Fluorescence intensity was recorded at an excitation wavelength of 380 nm and emission wavelength of 460 nm in a Synergy H1 microplate reader (BioTek) with Gen 5 3.04 software. Values were background corrected for non‐transfected HEK293T‐cells. […]"}, "recombinant furin": {"target": "T5, recombinant furin (Homo sapiens, UniProt P09958)", "T5 construct": "purchased Bachem (so in the source) 1503-SE-010", "T5 sequence (P09958 108-794)": "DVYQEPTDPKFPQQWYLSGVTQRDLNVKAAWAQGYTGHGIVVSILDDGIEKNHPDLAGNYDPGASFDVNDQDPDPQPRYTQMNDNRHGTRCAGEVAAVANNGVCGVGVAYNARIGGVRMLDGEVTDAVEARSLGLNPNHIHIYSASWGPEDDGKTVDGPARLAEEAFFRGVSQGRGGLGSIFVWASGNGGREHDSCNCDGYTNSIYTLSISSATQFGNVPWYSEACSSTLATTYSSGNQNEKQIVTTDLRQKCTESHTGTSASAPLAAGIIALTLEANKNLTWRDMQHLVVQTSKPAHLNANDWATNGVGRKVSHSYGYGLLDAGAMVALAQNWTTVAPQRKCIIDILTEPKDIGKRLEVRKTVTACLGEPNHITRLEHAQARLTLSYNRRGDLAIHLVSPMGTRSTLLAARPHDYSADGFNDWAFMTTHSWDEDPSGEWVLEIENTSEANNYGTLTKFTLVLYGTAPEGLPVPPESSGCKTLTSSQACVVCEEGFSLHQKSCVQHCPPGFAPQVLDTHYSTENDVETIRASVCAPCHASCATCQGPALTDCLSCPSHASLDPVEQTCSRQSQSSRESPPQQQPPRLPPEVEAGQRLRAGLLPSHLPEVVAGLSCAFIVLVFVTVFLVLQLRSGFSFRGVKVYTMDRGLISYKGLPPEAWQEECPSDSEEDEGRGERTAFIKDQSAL", "assay": "Furin activity assay", "type": "biochemical", "procedure": "Furin activity assay was conducted as described previously with slight changes.^[ [42] ^] In brief, Trypstatin was mixed with recombinant furin (Bachem #1503‐SE‐010, final concentration 1.0 ng µL^−1) in assay buffer (25 mM Tris, 1 mM CaCl2, pH 9) for 30 min at room temperature before the addition of […] ‐L‐pyroglutamyl‐modified RTKR‐ AMC substrate (Bachem #4018149) per well with a final concentration of 1 mM CaCl2 in water. Fluorescence intensity was recorded in 2 min intervals for 5 h at an excitation wavelength of 355 nm and emission wavelength of 460 nm at 37 °C in a Cytation 3 (BioTek) microplate reader. The area under the curve values were normalized to the furin control. Hexa‐D‐arginine served as inhibitor control."}, "TMPRSS14 (Matriptase)": {"target": "T6, TMPRSS14 (Matriptase) (Homo sapiens, UniProt Q9Y5Y6)", "T6 construct": "purchased 3946", "T6 sequence (Q9Y5Y6 whole entry)": "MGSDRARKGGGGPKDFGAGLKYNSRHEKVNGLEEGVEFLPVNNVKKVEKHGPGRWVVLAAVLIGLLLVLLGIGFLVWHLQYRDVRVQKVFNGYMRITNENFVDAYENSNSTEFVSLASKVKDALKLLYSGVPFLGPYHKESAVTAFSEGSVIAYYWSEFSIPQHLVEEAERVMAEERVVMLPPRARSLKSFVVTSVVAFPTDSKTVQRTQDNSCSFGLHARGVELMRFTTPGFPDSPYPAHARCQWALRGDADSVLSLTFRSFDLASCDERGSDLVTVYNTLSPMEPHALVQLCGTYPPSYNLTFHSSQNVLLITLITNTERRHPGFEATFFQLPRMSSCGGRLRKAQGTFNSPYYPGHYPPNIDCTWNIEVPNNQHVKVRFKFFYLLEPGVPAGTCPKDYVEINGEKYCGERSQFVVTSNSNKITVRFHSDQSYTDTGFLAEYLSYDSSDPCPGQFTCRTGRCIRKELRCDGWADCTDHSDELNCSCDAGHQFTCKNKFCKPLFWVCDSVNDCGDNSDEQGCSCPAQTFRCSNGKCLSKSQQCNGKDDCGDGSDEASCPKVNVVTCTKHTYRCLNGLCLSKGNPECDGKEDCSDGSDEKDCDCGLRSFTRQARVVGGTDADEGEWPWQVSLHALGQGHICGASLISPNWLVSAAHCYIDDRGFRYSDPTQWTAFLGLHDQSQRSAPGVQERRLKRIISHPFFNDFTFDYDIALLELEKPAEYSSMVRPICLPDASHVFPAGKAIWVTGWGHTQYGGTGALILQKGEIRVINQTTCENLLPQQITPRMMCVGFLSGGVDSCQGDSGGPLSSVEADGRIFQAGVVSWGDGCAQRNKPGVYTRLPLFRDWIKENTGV", "assay": "Recombinant TMPRSS14 activity assay", "type": "biochemical", "details": "recombinant enzyme", "procedure": "In the next step, 50 µL of 20 µM BOC‐Gln‐Ala‐Arg‐AMC protease substrate (Bachem #4017019) in the case of TMPRSS2 and TMPRSS14 or 50 µL of 150 µM BOC‐Gln‐Arg‐Arg‐AMC (PeptaNova) in the case of TMPRSS1 was added and incubated for 2 h for TMPRSS2, or 5 mins in the case of TMPRSS1/14 at 37 °C. Fluorescence intensity was measured after 2 h at an excitation wavelength of 380 nm and emission wavelength of 460 nm in a SynergyTM H1 microplate reader (BioTek) with Gen5 3.04 software. […] Assays were performed in a total volume of 100 µL in quadruplicate wells of a 96 Nunc well plate (Thermo Scientific #10174221) with a final TMPRSS2 concentration of 20 nM. Initial velocities were measured in 50 s intervals for 15 min with excitation of 360 nm and emission of 460 nm in a SynergyTM H1 microplate reader. K m and V max were calculated from Michaelis–Menten plots using GraphPadPrism. The inhibitory constant K i was calculated from the IC50 values according to the Cheng–Prusoff equation (K i = IC50/(1 + [S]/K m)) for competitive reversible inhibitors.^[ [91] ^]"}}, "note": "Entries after “also recorded” stand apart in the source; their conditions may differ. Bridge positions count the residues as written; N and C are the ends.", "data": [{"sequence": "VAACNLPIVRGPCRAFIQLWAFDAVKGKCVLFPYGGCQGNGNKFYSEKECREYCGVPGDGD (disulfide 4-54, 13-37, 29-50 (inferred)) [Trypstatin]", "values": [{"measurement": "inhibition of Cathepsin B", "setting": "[1]", "result": "did not inhibit"}, {"measurement": "clinical symptoms (piloerection, weakness, fatigue, abnormal posture)", "setting": "SARS-CoV-2 Delta", "result": "almost entirely absent"}, {"measurement": "infectious virus particles in BAL (TCID50)", "setting": "SARS-CoV-2 Delta", "result": "significantly reduced"}, {"measurement": "side effects in hamsters", "setting": "SARS-CoV-2 Delta", "result": "without observed side effects"}, {"measurement": "viral loads in BAL (qPCR)", "setting": "SARS-CoV-2 Delta", "result": "significantly reduced"}, {"measurement": "effect on VSV-G-mediated pseudoparticle entry", "setting": "[2]", "result": "without affecting VSV‐G‐driven entry"}, {"measurement": "inhibition of Cathepsin L", "setting": "cathepsin L", "result": "did not inhibit"}, {"measurement": "inhibition of ACE2", "setting": "recombinant ACE2", "result": "did not inhibit; also recorded: does not inhibit"}, {"measurement": "cytotoxicity / cell viability", "setting": "Caco-2 cells", "result": "does not influence cell viability"}, {"measurement": "effect on expression of inflammatory genes", "setting": "[3]", "result": "failed to reach significance; also recorded: does not have a significant anti-inflammatory effect"}, {"measurement": "reduction of SARS-CoV-2 BA.5 replication over 72 h", "setting": "SARS-CoV-2 BA.5", "result": "up to four orders of magnitude"}, {"measurement": "inhibition of hamster TMPRSS2", "setting": "[4]", "result": "IC50 values similar to those for human TMPRSS2; also recorded: blocks hamster and human TMPRSS2 activity with similar efficacies"}, {"measurement": "inhibition of Furin", "setting": "recombinant furin", "result": "did not inhibit; also recorded: does not inhibit"}, {"measurement": "inhibition of TMPRSS14", "setting": "TMPRSS14 (Matriptase)", "result": "no effect"}]}]}
